Results taken from patent US12582654B2, “Cyano-substituted pyridine and cyano-substituted pyrimidine compound and preparation method therefor and application thereof” (BEIJING SCITECH-MQ PHARMACEUTICALS LIMITED, priority 2019, dated 2026).

How the values were obtained:
FGFR4 kinase = FGFR4 kinase (Homo sapiens, UniProt P22455); assay: Inhibition of FGFR4 kinase activity (ULight-labeled JAK-1 peptide, EU665/EU615 reading); type: biochemical; conditions: FGFR4 kinase 3.85 nM, ATP 100 μM, enzymatic reaction 2 hours
Sequence of FGFR4 kinase (P22455 22-802): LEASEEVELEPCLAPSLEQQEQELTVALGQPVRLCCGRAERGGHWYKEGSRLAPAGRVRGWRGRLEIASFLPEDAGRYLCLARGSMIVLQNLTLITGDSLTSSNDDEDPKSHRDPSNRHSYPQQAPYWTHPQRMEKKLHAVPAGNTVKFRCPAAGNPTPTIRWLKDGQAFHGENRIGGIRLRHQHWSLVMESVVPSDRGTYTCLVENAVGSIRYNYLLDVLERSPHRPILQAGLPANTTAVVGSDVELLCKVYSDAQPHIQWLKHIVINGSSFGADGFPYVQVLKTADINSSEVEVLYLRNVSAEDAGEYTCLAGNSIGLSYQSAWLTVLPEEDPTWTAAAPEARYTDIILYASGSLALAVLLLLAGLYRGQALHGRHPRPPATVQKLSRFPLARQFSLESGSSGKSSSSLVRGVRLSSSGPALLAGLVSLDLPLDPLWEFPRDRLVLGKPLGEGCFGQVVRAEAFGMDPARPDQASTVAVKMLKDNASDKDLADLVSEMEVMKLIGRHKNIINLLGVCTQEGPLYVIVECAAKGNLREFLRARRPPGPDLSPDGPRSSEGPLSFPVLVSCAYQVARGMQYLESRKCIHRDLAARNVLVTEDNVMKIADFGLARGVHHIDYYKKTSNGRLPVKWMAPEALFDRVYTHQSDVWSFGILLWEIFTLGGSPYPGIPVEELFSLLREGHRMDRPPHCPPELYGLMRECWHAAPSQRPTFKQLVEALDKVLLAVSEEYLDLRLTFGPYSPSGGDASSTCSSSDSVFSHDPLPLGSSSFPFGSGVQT
Summary of the method: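 TR-FRET kinase assay using 3.85 nM FGFR4, 100 μM ATP and 100 nM ULight-JAK-1 (Tyr1023) peptide; 5 min enzyme–compound preincubation, then 2 h at room temperature. Compounds at 11 3-fold dilutions from 2.5 μM down to 0.042 nM, 1% DMSO. IC50 from EU665/EU615 ratio inhibition curves.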

FGFR4 V550L kinase = FGFR4 V550L kinase (Homo sapiens, UniProt P22455, V550L); assay: Inhibition of FGFR4 V550L mutant kinase activity (ULight-labeled PolyGT, EU665/EU615 reading); type: biochemical; conditions: FGFR4 V550L kinase 1 nM, ATP 10 μM, enzymatic reaction 2 hours
Sequence of FGFR4 V550L kinase (P22455 22-802 V550L): as the sequence (P22455 22-802) above, with V529L counted along it
Summary of the method: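 TR-FRET kinase assay: 1 nM FGFR4 V550L, 10 μM ATP, 100 nM ULight-PolyGT substrate, 2 h at room temperature after 5 min compound–enzyme preincubation, 1% DMSO. Compound tested as 11-point 3-fold dilution from 2.5 μM to 0.042 nM final. Signal as EU665/EU615 ratio; IC50 fitted from % inhibition.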

Ba/F3 ETV6-FGFR4 cells = target: T1, Ba/F3 ETV6-FGFR4 cells (Homo sapiens, UniProt P22455); assay: Inhibition of cell proliferation (CCK-8), Ba/F3 ETV6-FGFR4 cells; type: cell-based; conditions: 72 hours of incubation, read-out: Ba/F3 ETV6-FGFR4 IC50
T1 construct: fused on or other part: N-terminal part of ETV6 (TEL), the oligomerising partner that makes the FGFR4 kinase constitutively active; P41212 (Transcription factor ETV6)
T1 sequence (P22455 whole entry, change not shown, the tested form may be a part): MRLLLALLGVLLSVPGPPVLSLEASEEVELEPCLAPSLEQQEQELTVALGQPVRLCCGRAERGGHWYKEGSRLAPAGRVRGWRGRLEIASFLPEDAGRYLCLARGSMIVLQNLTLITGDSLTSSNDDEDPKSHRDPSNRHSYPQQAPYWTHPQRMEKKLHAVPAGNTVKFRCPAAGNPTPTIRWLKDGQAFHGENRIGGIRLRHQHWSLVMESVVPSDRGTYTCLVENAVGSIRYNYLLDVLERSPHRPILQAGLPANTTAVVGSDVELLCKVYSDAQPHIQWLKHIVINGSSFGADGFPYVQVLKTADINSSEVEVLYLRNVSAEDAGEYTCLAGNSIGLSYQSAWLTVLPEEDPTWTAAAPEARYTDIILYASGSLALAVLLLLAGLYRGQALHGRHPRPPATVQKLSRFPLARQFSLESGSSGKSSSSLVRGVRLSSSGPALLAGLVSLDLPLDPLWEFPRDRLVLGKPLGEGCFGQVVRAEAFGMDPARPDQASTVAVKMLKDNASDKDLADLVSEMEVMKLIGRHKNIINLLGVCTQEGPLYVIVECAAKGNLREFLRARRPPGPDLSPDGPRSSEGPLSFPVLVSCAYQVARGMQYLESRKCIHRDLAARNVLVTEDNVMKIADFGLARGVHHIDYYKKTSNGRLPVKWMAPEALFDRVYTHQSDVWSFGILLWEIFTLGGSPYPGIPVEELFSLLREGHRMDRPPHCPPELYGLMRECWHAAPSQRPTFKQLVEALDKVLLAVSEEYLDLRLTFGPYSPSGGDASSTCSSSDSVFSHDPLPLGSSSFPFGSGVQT
Summary of the method: (§1)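 Ba/F3 cells expressing ETV6-FGFR4 or ETV6-FGFR4-V550L exposed for 72 h to 9 concentrations from 4-fold serial dilution (0.25% DMSO final). Viability by CCK-8, OD 450 nm after 1–2 h at 37 °C, relative to untreated and cell-free blanks; IC50 from curve fitting.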

[1] = target: T2, Ba/F3 ETV6-FGFR4-V550L cells (Homo sapiens, UniProt P22455, V550L, cells depend on it); assay: Inhibition of cell proliferation (CCK-8), Ba/F3 ETV6-FGFR4-V550L cells; type: cell-based; conditions: 72 hours of incubation, read-out: Ba/F3 ETV6-FGFR4-V550L IC50
T2 construct: fused on or other part: N-terminal part of ETV6 (TEL), the oligomerising partner of the fusion; already named as the first entry; P41212 (Transcription factor ETV6)
T2 sequence (P22455 whole entry V550L, the tested form may be a part): as the sequence (P22455 whole entry, change not shown, the tested form may be a part) above, with V550L counted along it
Summary of the method: as §1

[2] = system: FGF19 gene-amplified cells; conditions: cited from earlier work
[3] = mouse and monkey animal models; cited from earlier work
FGFR = conditions: cited from earlier work
each subtype of FGFR = conditions: cited from earlier work

C=CC(=O)Nc1cc(N2CCC(N3CCN(C)CC3)CC2)ccc1Nc1ncc(C#N)c(Nc2ccccc2SC(C)C)n1 [Example 81]
IC50 (FGFR4 kinase): ≤ 10 nM
IC50 (FGFR4 V550L kinase): ≤ 10 nM
GI50 (Ba/F3 ETV6-FGFR4 cells): ≤ 10 nM
GI50 [1]: ≤ 10 nM

C=CC(=O)Nc1cc(N2CCN(CC)CC2)ccc1Nc1cc(N(C)C(=O)Nc2c(Cl)c(OC)cc(OC)c2Cl)ncn1 [Example H3B6527]
antitumor activity against FGF19 gene-amplified cells [2]: strong antitumor activity
bile acid-related adverse effects [3]: without bile acid-related adverse effects

CCN(CC)CCCCNc1ncc2cc(-c3cc(OC)cc(OC)c3)c(NC(=O)NC(C)(C)C)nc2n1 [PD173074]
FGFR inhibitory activity (FGFR): nanomolar inhibitory activity

C=CC(=O)N1CCN(CCCn2c(=O)c(-c3c(Cl)c(OC)cc(OC)c3Cl)cc3cnc(NC)nc32)CC1 [PRN-1371]
enzymatic inhibitory activity against each subtype of FGFR (each subtype of FGFR): nanomolar levels
